Experimental data taken from patent publication US20220259558A1, “METHODS FOR OBTAINING EYE FIELD PROGENITOR CELLS FROM HUMAN PLURIPOTENT STEM CELLS” (Novo Nordisk A/S, priority 2019, published 2022).

How the values were obtained:
[1] = system: human embryonic stem cells (hESC); experiment: Initial attachment of hESC on different laminins after single cell seeding (brightfield); format: cell-based; details: after 12 hours; hESC grown and maintained on LN-521, single cell seeding
Experimental: LN-332 can be used for further differentiation.
An internally generated hESC line was maintained on human recombinant laminin (hrLN) coated plates (Biolaminin 521 LN, Biolamina) in NutriStem hPSC XF medium (Biological Industries), in a 5% CO2 incubator at 37° C. and passaged enzymatically at 1:10-1:20 ratio every 3-5 days. For passaging, confluent cultures were washed once with phosphate buffered saline (PBS) without calcium and magnesium ions and incubated for 5 min at 37° C. with TrypLE Select (GIBCO, Thermo Fisher Scientific). The enzyme was then carefully removed and the cells were collected in fresh NutriStem hPSC XF medium by gentle pipetting to obtain single cell suspension and the required volume plated on a freshly hrLN-521 coated dish. After passage, the medium was replaced with fresh prewarmed NutriStem hPSC XF medium and changed daily.
hESC-RPE monolayer differentiation hESC were plated at a cell density of 5.5×10^4 cells/cm2 on hrLN-332 laminin coated dishes at 10 μg/mL (Biolaminin 332 LN, Biolamina) using NutriStem hPSC XF medium. Rho-kinase inhibitor (Y-27632, Millipore) at a concentration of 10 μM was added during the first 24 hours, while cells were kept at 37° C., 5% CO2. After 24 hours, the culture medium was replaced with differentiation medium according to the examples. […]

hESC [2] = experiment: RNA (gene) expression analysis of differentiated hESC, real-time PCR; format: cell-based, human; details: for induction of gene expression of markers of eye field progenitor cells with a RPE progenitor cell identity: comparison of BMPs, day 7-21, with CHIR99021 day 12-21, single SMAD inhibition
Experimental: The graphs indicate the cycle threshold (CT) values from real-time polymerase chain reaction (PCR). Differentiated cells with BMP5 are collected at day 21 and RNA extracted, converted to cDNA and RNA expression analyses performed. hESC are used as comparison and CT values are inversely proportional to mRNA level.
RNA expression of RPE progenitor cell-related genes was quantified. Note that 200 ng/ml and 1000 ng/ml of BMP5 treatment promote the expression of RPE progenitor genes.
RNA expression of neural retina progenitor genes was quantified. 200 ng/ml and 1000 ng/ml of BMP5 treatment promote the expression of neural retina progenitor cell genes.
The effect of BMP5 is compared to that of BMP4, BMP7 and BMP4/7 heterodimer.
(§1) hESC-RPE monolayer differentiation hESC were plated at a cell density of 5.5×10^4 cells/cm2 on hrLN-332 laminin coated dishes at 10 μg/mL (Biolaminin 332 LN, Biolamina) using NutriStem hPSC XF medium. Rho-kinase inhibitor (Y-27632, Millipore) at a concentration of 10 μM was added during the first 24 hours, while cells were kept at 37° C., 5% CO2. After 24 hours, the culture medium was replaced with differentiation medium according to the examples. The differentiation media “GMEM” in the following examples is always supplemented with Penicillin-Streptomycin solution (20 units/ml; Thermo Fisher), beta-Mercaptoethanol (0.5 mM; Thermo Fisher), Sodium pyruvate (1 mM; Thermo Fisher), Non-Essential Amino Acids (1×; Thermo Fisher).
We analyzed gene expression at day 21 on cells that were generated with the following protocol, […]

hESC [3] = experiment: Differentiation of hESC into eye field progenitor cells, marker-positive cells by immunofluorescence; format: cell-based, human
Text: FIGS. 2A and 2B show the effect of human BMP5 and Activin A on the differentiation of hESC into VSX2 and MITF positive cells. Immunofluorescence showing conditions 1 and 2, without BMP5 or Activin A, with poor levels of MITF or VSX2. In contrast, the addition of BMP5 from day 12 (conditions 3 and 4), increase the number of cells positive for MITF and VSX2. The addition of Activin A from day 15, in combination with BMP5, has no clear additional effect. In contrast, the use of Activin A alone from day 12, or combination with BMP5 from day 15 (conditions 5 and 6), generates a lower number of cells positive for MITF and VSX2. […] The combination of IHH (Indian Hedgehog) and DKK2 (Dickkopf WNT Signaling Pathway Inhibitor 2) might help in the generation of MITF/VSX2 positive cells.
An initial treatment with the small molecule GW788388, NOGGIN and Endo IWR1 for 12 days, followed by a treatment with BMP5, IHH and DKK2 generates high numbers of PAX6/OTX2 double positive cells addressed by immunofluorescence. DAPI is used for nuclear staining of all cells.
The use of BMP5 induces the generation of MITF and VSX2 positive cells (second row), addressed by immunofluorescence, indicating the generation of neural retina progenitor cells. In contrast, the addition of the GSK3 inhibitor CHIR99021 (lower row) drastically blocks the expression of VSX2, and reinforces the expression of MITF and the generation of MITF positive cells with cobblestone morphology. This is indicative of RPE progenitor cells. First row, control without BMP5. DAPI is used for nuclear staining of all cells.
as §1
In order to differentiate hESC into eye progenitor cells, we tested the effect of BMP5 in different conditions in combination with small molecules and recombinant proteins that mimics developmental cues. We relied on sequential activation and/or repression of the common developmental pathways associated to eye development for our differentiation protocol and combined with activation of BMP pathway by BMP5. After cell dissociation, hESC line expanded on LN-521 were dissociated to single cells and seeded on LN-332 for differentiation. These cells adapted well to this laminin.
We decided to explore the inhibition of GSK3 with the small molecule CHIR99021 in combination with BMP5, and to remove the WNT inhibitor Endo IWR1 from the protocol, as GSK3 inhibition might activate canonical (beta-Catenin dependent) WNT signalling.
We decided to explore the effect of another SMAD inhibitor, RepSOX, in combination with NOGGIN, and to combine with BMP5 and CHIR99021 to obtain RPE progenitor cells positive for MITF. This will indicate if different SMAD inhibitors could be used in our BMP5-based protocol.

hESC [4] = experiment: Protein expression of hESC-derived progenitor cells by flow cytometry; format: cell-based, human; details: after 21 days, single SMAD inhibitor (GW788388)
Experimental: More than 40% of the cells show co-expression of the markers PAX6/MITF.
More than 50% of the cells show co-expression of the markers PAX6/VSX2.
as §1
In order to provide quantitative data of the cells generated with our BMP5-based protocol, we analysed the eye field progenitor cells generated under treatment with BMP5 for NR progenitor cells or with BMP5 and CHIR99021 for RPE progenitor cells by flow cytometry. Moreover, we tested single SMAD inhibition by removing NOGGIN from the protocol.

[5] = Example 1, immunofluorescence, factor from day 12 after NOGGIN+GW788388+Endo IWR1, to day 21

Molecule: LN-332: human recombinant laminin isoform 332 (Biolaminin 332 LN, Biolamina), coating matrix
- initial attachment of hESC [1]: excellent attachment

Molecule: BMP5: human bone morphogenetic protein 5, recombinant protein (R&D systems), SEQ ID NO: 1
- best condition (BMP5 concentration) to induce eye field progenitor cells with a RPE progenitor cell identity (hESC [2]; 0, 0.1, 200 and 1000 ng/ml tested, day 7-21, with CHIR99021 day 12-21, gene expression day 21): 200 ng/mL
- best condition (BMP5 concentration) to generate eye field progenitor cells with a NR progenitor cell identity (hESC [2]; 0, 0.1, 200 and 1000 ng/ml tested, day 7-21, VSX2 gene expression day 21): 200 ng/mL
- effect on generation of eye field progenitor cells (hESC [2]; BMP5 at 1000 ng/ml): positive but milder effect
- induction of gene expression of markers of eye field progenitor cells with a RPE progenitor cell identity (hESC [2]): superior effect
- MITF, PAX6 and VSX2 mRNA levels (hESC [2]; day 21, CT values, compared to hESC): increased compared to hESC
- generation of MITF and VSX2-positive cells (hESC [3]; [5]): generated MITF and VSX2-positive cells
- generation of MITF and VSX2-positive cells (hESC [3]; Example 2, dual SMAD inhibition (NOGGIN+GW788388), BMP5 from day 7 to day 21): strongly generated MITF and VSX2-positive cells
- generation of double PAX6/OTX2 positive cells (hESC [3]; immunofluorescence, GW788388, NOGGIN and Endo IWR1 for 12 days, then BMP5, IHH and DKK2): induces the generation of double PAX6/OTX2 positive cells
- PAX6-positive cells (hESC [4]): more than 95%
- double positive cells PAX6/VSX2 (hESC [4]): more than 50%

B1: BMP7: member of the BMP family compared to BMP5 (protein, UniProt P18075 293-431, looked up)
Bone morphogenetic protein 7: STGSKQRSQNRSKTPKNQEALRMANVAENSSSDQRQACKKHELYVSFRDLGWQDWIIAPEGYAAYYCEGECAFPLNSYMNATNHAIVQTLVHFINPETVPKPCCAPTQLNAISVLYFDDSSNVILKKYRNMVVRACGCH
- induction of gene expression of markers of eye field progenitor cells with a RPE progenitor cell identity (hESC [2]): better than BMP4

B2: BMP4: member of the BMP family compared to BMP5 (protein, UniProt P12644 293-408, looked up)
Bone morphogenetic protein 4: SPKHHSQRARKKNKNCRRHSLYVDFSDVGWNDWIVAPPGYQAFYCHGDCPFPLADHLNSTNHAIVQTLVNSVNSSIPKACCVPTELSAISMLYLDEYDKVVLKNYQEMVVEGCGCR
- induction of gene expression of markers of eye field progenitor cells with a RPE progenitor cell identity (hESC [2]): least capacity to induce these markers

B3: Activin A: Recombinant protein (R&D systems/Peprotech) (protein, UniProt P08476 311-426, looked up)
Inhibin beta A chain: GLECDGKVNICCKKQFFVSFKDIGWNDWIIAPSGYHANYCEGECPSHIAGTSGSSLSFHSTVINHYRMRGHSPFANLKSCCVPTKLRPMSMLYYDDGQNIIKKDIQNMIVEECGCS
modifications: Inhibin beta A chain
- generation of MITF and VSX2-positive cells (hESC [3]; [5]): negative effect

B4: DKK2: Dickkopf WNT Signaling Pathway Inhibitor 2, recombinant protein (protein, UniProt Q9UBU2 34-259, looked up)
Dickkopf-related protein 2: KLNSIKSSLGGETPGQAANRSAGMYQGLAFGGSKKGKNLGQAYPCSSDKECEVGRYCHSPHQGSSACMVCRRKKKRCHRDGMCCPSTRCNNGICIPVTESILTPHIPALDGTRHRDRNHGHYSNHDLGWQNLGRPHTKMSHIKGHEGDPCLRSSDCIEGFCCARHFWTKICKPVLHQGEVCTKQRKKGSHGLEIFQRCDCAKGLSCKVWKDATYSSKARLHVCQKI
- generation of MITF and VSX2-positive cells (hESC [3]; [5]): not sufficient to generate MITF or VSX2-positive cells
